Results: US10766884B2 (Pfizer Inc., priority 2018, dated 2020)

Columns and labels:
[1] = target: CDK6/Cyclin D3 (Homo sapiens (Human), UniProt Q00534); experiment: CDK6/Cyclin D3 mobility shift assay; assay type: biochemical; conditions: activated CDK6/Cyclin D3, 3.5 mM ATP, Morrison fit; read-out: CDK6_D3 Ki
Procedure: (§1) The purpose of the CDK6/Cyclin D3 assay is to evaluate the inhibition (% inhibition, Kiapp and Ki values) in the presence of small molecule inhibitors by using a fluorescence based microfluidic mobility shift assay. […] The mobility shift assay electrophoretically separates the fluorescently labeled peptides (substrate and phosphorylated product) following the kinase reaction. Both substrate and product are measured and the ratio of these values is used to generate % conversion of substrate to product by the LabChip EZ Reader.
The reaction was stopped after 95 minutes by the addition of 50 μL of 30 mM EDTA. Ki determinations were made from a plot of the fractional velocity as a function of inhibitor concentration fit to the Morrison equation with the enzyme concentration as a variable.
(§2) For CDK4 and CDK6 mobility shift assays, see also Morrison, J. F. (1969) Kinetics of the reversible inhibition of enzyme-catalysed reactions by tight-binding inhibitors, Biochimica et biophysica acta 185, 269-286; and Murphy, D. J. (2004) Determination of accurate KI values for tight-binding enzyme inhibitors: an in silico study of experimental error and assay design, Analytical biochemistry 327, 61-67.

[2] = target: CDK4/Cyclin D1 (Homo sapiens (Human), UniProt P11802); experiment: CDK4/Cyclin D1 mobility shift assay; assay type: biochemical; conditions: activated CDK4/Cyclin D1, 3.5 mM ATP, Morrison fit; read-out: CDK4D1 Ki
Sequence of CDK4/Cyclin D1 (P11802 whole entry): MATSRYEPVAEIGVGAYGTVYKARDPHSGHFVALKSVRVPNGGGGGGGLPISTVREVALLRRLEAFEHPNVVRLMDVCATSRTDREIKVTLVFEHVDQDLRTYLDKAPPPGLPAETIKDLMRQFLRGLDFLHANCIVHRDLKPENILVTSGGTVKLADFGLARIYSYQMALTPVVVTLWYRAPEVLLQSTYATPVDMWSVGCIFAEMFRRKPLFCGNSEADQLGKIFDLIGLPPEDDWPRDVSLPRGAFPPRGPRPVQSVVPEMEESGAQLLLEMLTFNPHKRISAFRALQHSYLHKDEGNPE
Sequence of CDK4/Cyclin D1 (P24385 whole entry partner): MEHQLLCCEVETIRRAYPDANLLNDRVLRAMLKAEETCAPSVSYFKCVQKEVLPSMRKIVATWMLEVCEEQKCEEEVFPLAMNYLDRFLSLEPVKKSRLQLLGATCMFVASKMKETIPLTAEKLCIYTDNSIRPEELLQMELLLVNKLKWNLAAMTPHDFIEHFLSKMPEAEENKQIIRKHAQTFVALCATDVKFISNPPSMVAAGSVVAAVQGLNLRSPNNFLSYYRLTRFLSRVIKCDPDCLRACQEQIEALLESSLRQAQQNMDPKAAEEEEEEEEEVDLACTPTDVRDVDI
Procedure: as §1, with “CDK4/Cyclin D1” for “of the CDK6/Cyclin D3”, “Conversion” for “conversion”
The reaction was stopped after 195 minutes by the addition of 50 μL of 30 mM EDTA. Ki determinations were made from a plot of the fractional velocity as a function of inhibitor concentration fit to the Morrison equation with the enzyme concentration as a variable.
as §2

Sequence of CDK6/Cyclin D3 (Q00534 whole entry): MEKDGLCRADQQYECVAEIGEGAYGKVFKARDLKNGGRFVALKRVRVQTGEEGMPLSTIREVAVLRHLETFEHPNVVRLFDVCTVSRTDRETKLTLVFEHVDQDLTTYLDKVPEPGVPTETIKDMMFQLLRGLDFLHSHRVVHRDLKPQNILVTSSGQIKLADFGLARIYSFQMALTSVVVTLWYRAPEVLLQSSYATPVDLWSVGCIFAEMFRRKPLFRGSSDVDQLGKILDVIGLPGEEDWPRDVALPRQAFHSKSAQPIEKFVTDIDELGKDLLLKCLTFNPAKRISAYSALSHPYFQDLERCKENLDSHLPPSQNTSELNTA
Sequence of CDK6/Cyclin D3 (P30281 whole entry partner): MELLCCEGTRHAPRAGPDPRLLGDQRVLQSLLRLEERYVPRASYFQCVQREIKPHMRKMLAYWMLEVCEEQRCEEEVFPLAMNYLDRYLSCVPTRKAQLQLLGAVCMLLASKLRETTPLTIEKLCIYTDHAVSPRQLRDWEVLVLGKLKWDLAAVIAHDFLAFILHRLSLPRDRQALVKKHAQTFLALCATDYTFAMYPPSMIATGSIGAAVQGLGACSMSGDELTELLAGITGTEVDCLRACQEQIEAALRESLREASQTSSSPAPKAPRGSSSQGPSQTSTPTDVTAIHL

SMILES	Ki [1] [nM]	Ki [2] [nM]
CC1OCC(C)n2c1nc1c(F)cc(-c3nc(N[C@@H]4CCOC[C@H]4O)ncc3Cl)cc12 (single isomer, unassigned) [Example A20]	20.4	–
CC1OCC(C)n2c1nc1c(F)cc(-c3nc(N[C@@H]4CCOC[C@H]4O)ncc3Cl)cc12 (single isomer, unassigned) [Example A21]	136	–
CC(C)n1c(C2CCO2)nc2c(F)cc(-c3nc(N[C@@H]4CCN(S(C)(=O)=O)C[C@H]4O)ncc3Cl)cc21 (single isomer, unassigned) [Example A32]	7.1	0.9
CC1CNCc2nc3c(F)cc(-c4nc(N[C@@H]5CCOC[C@H]5O)ncc4Cl)cc3n21 (single isomer, unassigned) [Example A56, 1,5-anhydro-3-{[5-chloro-4-(9-fluoro-4-methyl-1,2,3,4-tetrahydropyrazino[1,2-a]benzimidazol-7-yl)pyrimidin-2-yl]amino}-2,3-dideoxy-D-threo-pentitol]	9.6	1.3
COC(=O)N1CC[C@@H](Nc2ncc(Cl)c(-c3cc(F)c4ncn(C5CCOC5)c4c3)n2)[C@H](O)C1 (single isomer, unassigned) [Example F02]	39.9	4.3
COC(=O)N1CC[C@@H](Nc2ncc(Cl)c(-c3cc(F)c4ncn(C5CCOC5)c4c3)n2)[C@H](O)C1 (single isomer, unassigned) [Example F03]	26.4	2.7
Cc1nc2c(F)cc(-c3nc(N[C@H]4CCN(C)C[C@@H]4O)ncc3F)cc2n1C(C)C (single isomer, unassigned) [Example F07]	125	15.3
CC(C)n1c([C@@H](C)O)nc2c(F)cc(-c3nc(N[C@@H]4CCN(S(C)(=O)=O)C[C@@H]4O)ncc3Cl)cc21 (single isomer, unassigned) [Example F12]	–	50
CN1CCC(Nc2ncc(F)c(-c3cc(F)c4ncn(C(C)(C)C)c4c3)n2)CC1 [Example A03]	17.3	4
Cc1nc2c(F)cc(-c3nc(N[C@@H]4CCN(S(C)(=O)=O)C[C@H]4O)ncc3Cl)cc2n1C [Example A08]	4.8	1.1
CN1Cc2nc3c(F)cc(-c4nc(N[C@@H]5CCOC[C@H]5O)ncc4Cl)cc3n2C(C)(C)C1 [Example A22]	49.7	3.2
CC(C)n1c(C(N)=O)nc2c(F)cc(-c3nc(N[C@@H]4CCOC[C@H]4O)ncc3Cl)cc21 [Example A33]	78	8.3
CNC(=O)c1nc2c(F)cc(-c3nc(N[C@@H]4CCOC[C@H]4O)ncc3Cl)cc2n1C(C)C [Example A34]	102	11.1
Cc1nc2c(F)cc(-c3nc(N[C@@H]4CCNC[C@H]4O)ncc3F)cc2n1C(C)C [Example A37, (3R,4R)-4-({5-fluoro-4-[4-fluoro-2-methyl-1-(propan-2-yl)-1H-benzimidazol-6-yl]pyrimidin-2-yl}amino)piperidin-3-ol]	34.2	3.5
Cc1nc2c(F)cc(-c3nc(N[C@@H]4CCN(S(C)(=O)=O)C[C@H]4O)ncc3Cl)cc2n1[C@@H](C)CN [Example A39, (3R,4R)-4-[(4-{1-[(2S)-1-aminopropan-2-yl]-4-fluoro-2-methyl-1H-benzimidazol-6-yl}-5-chloropyrimidin-2-yl)amino]-1-(methanesulfonyl)piperidin-3-ol]	12.3	1.3
C[C@@H](N)c1nc2c(F)cc(-c3nc(N[C@@H]4CCOC[C@H]4O)ncc3Cl)cc2n1C(C)(C)C [Example A42, 3-[(4-{2-[(1R)-1-aminoethyl]-1-tert-butyl-4-fluoro-1H-benzimidazol-6-yl}-5-chloropyrimidin-2-yl)amino]-1,5-anhydro-2,3-dideoxy-D-threo-pentitol]	54.7	6
CC(C)n1c(C2(N)CC2)nc2c(F)cc(-c3nc(N[C@@H]4CCOC[C@H]4O)ncc3Cl)cc21 [Example A43, 3-({4-[2-(1-aminocyclopropyl)-4-fluoro-1-(propan-2-yl)-1H-benzimidazol-6-yl]-5-chloropyrimidin-2-yl}amino)-1,5-anhydro-2,3-dideoxy-D-threo-pentitol]	44	4.8
CC1(C)CNCc2nc3c(F)cc(-c4nc(N[C@@H]5CCOC[C@H]5O)ncc4Cl)cc3n21 [Example A46, 1,5-anhydro-3-{[5-chloro-4-(9-fluoro-4,4-dimethyl-1,2,3,4-tetrahydropyrazino[1,2-a]benzimidazol-7-yl)pyrimidin-2-yl]amino}-2,3-dideoxy-D-threo-pentitol]	40.5	2.3
CC(C)n1c([C@@H](C)O)nc2c(F)cc(-c3nc(N[C@@H]4CCNC[C@H]4O)ncc3Cl)cc21 [Example A50, (3R,4R)-4-[(5-chloro-4-{4-fluoro-2-[(1R)-1-hydroxyethyl]-1-(propan-2-yl)-1H-benzimidazol-6-yl}pyrimidin-2-yl)amino]piperidin-3-ol]	110	17
CC1(n2c(CO)nc3c(F)cc(-c4nc(N[C@@H]5CCOC[C@H]5O)ncc4Cl)cc32)CC1 [Example A63, 1,5-anhydro-3-({5-chloro-4-[4-fluoro-2-(hydroxymethyl)-1-(1-methylcyclopropyl)-1H-benzimidazol-6-yl]pyrimidin-2-yl}amino)-2,3-dideoxy-D-threo-pentitol]	9.7	0.9
CC(C)(F)Cn1c(CO)nc2c(F)cc(-c3nc(N[C@@H]4CCOC[C@H]4O)ncc3Cl)cc21 [Example A64, 1,5-anhydro-3-({5-chloro-4-[4-fluoro-1-(2-fluoro-2-methylpropyl)-2-(hydroxymethyl)-1H-benzimidazol-6-yl]pyrimidin-2-yl}amino)-2,3-dideoxy-D-threo-pentitol]	10.7	2
CS(=O)(=O)N1CC[C@@H](Nc2ncc(Cl)c(-c3cc(F)c4nc(CO)n(C5CCC5)c4c3)n2)[C@H](O)C1 [Example A65, (3R,4R)-4-({5-chloro-4-[1-cyclobutyl-4-fluoro-2-(hydroxymethyl)-1H-benzimidazol-6-yl]pyrimidin-2-yl}amino)-1-(methanesulfonyl)piperidin-3-ol]	3.5	0.6
OCc1nc2c(F)cc(-c3nc(N[C@@H]4CCOC[C@H]4O)ncc3Cl)cc2n1C1CC(F)(F)C1 [Example A66, 1,5-anhydro-3-({5-chloro-4-[1-(3,3-difluorocyclobutyl)-4-fluoro-2-(hydroxymethyl)-1H-benzimidazol-6-yl]pyrimidin-2-yl}amino)-2,3-dideoxy-D-threo-pentitol]	54.7	12.1
CC(C)(O)c1nc2c(F)cc(-c3nc(N[C@@H]4CCOC[C@H]4O)ncc3Cl)cc2n1CC(F)F [Example A67, 1,5-anhydro-3-({5-chloro-4-[1-(2,2-difluoroethyl)-4-fluoro-2-(2-hydroxypropan-2-yl)-1H-benzimidazol-6-yl]pyrimidin-2-yl}amino)-2,3-dideoxy-D-threo-pentitol]	15.5	1.4
CCc1cnc(N[C@@H]2CCN(S(C)(=O)=O)C[C@H]2O)nc1-c1cc(F)c2nc(C)n(C(C)C)c2c1 [Example A70, (3R,4R)-4-({5-ethyl-4-[4-fluoro-2-methyl-1-(propan-2-yl)-1H-benzimidazol-6-yl]pyrimidin-2-yl}amino)-1-(methanesulfonyl)piperidin-3-ol]	124	26.2
Cc1nc2c(F)cc(-c3nc(N[C@@H]4CCN(S(C)(=O)=O)C[C@H]4O)ncc3Cl)cc2n1C1CC1 [Example A72, (3R,4R)-4-{[5-chloro-4-(1-cyclopropyl-4-fluoro-2-methyl-1H-benzimidazol-6-yl)pyrimidin-2-yl]amino}-1-(methanesulfonyl)piperidin-3-ol]	2.1	0.3
COc1cnc(N[C@@H]2CCN(S(C)(=O)=O)C[C@H]2O)nc1-c1cc(F)c2nc(C)n(C(C)C)c2c1 [Example A82, (3R,4R)-4-({4-[4-fluoro-2-methyl-1-(propan-2-yl)-1H-benzimidazol-6-yl]-5-methoxypyrimidin-2-yl}amino)-1-(methanesulfonyl)piperidin-3-ol]	24.6	3.8
CC(O)c1nc2c(F)cc(-c3nc(N[C@@H]4CCN(S(=O)(=O)C(F)F)C[C@H]4O)ncc3Cl)cc2n1C(C)C (stereo partly drawn) [Example F09, (3R,4R)-4-({5-chloro-4-[4-fluoro-2-(1-hydroxyethyl)-1-(propan-2-yl)-1H-benzimidazol-6-yl]pyrimidin-2-yl}amino)-1-(difluoromethanesulfonyl)piperidin-3-ol]	–	0.6
CC(C)n1c([C@@H](C)O)nc2c(F)cc(-c3nc(N[C@H]4CCN(S(C)(=O)=O)C[C@@H]4O)ncc3Cl)cc21 [Example F13, (3S,4S)-4-[(5-chloro-4-{4-fluoro-2-[(1R)-1-hydroxyethyl]-1-(propan-2-yl)-1H-benzimidazol-6-yl}pyrimidin-2-yl)amino]-1-(methanesulfonyl)piperidin-3-ol]	–	11.6
